Experimental data taken from patent US20250017888A1, “COMPOUNDS FOR TREATING DISEASES ASSOCIATED WITH HYALURONAN OVERPRODUCTION” (THE ROYAL VETERINARY COLLEGE, priority 2021, published 2025).

Legend:
[1] = system: chondrosarcoma cells (SW1353); assay: Alamar blue staining of chondrosarcoma; type: cell-based; details: Homo sapiens
Description: (§1) The hyaluronan synthase activity (Prehm, P. and Schumacher, U., Biochem. Pharmacol. 2004, 68, 1401-1410), the cytotoxicity of the drugs (O'Brien, J. et al., Eur. J. Biochem. 2000, 267, 5421-5426), proteoglycan synthesis rate, hyaluronan (Prehm, P. J. Rheumatol., 2005, 32, 690-696) and proteoglycan (Bjornsson, S. Anal. Biochem. 1993, 210, 282-291) were determined as described. The effect of the prenylflavonoids on the MRP5 export rate was measured with fluorescein diacetate as described (Schulz, T., Schumacher, U., and Prehm, P., J Biol. Chem., 2007, 282, 20999-21004). The determination of the IC50 values on the phosphodiesterase 5 was performed according to the instructions of BPS Bioscience. The culture of bovine chondrocytes in alginate beads and of explants of bovine cartilage was described previously (Deiters, B. and Prehm, P. Arthritis Res. Ther., 2008, 10, R8; Prehm, P. J. Rheumatol. 2005, 32, 690-696). Osteoarthritic reactions were induced in chondrocytes growing in alginate beads by incubation with medium containing 10 ng/ml of II-17 for 6 days, and in cartilage explants with 10 ng/ml of II-17 and 5 ng/ml of II-1α. The supernatants were withdrawn and stored at −20° C. for later analysis. The explants were weighed and extracted with 1 ml of 4 M guanidinium-HCl for 72 hours at 4° C. The proteoglycan concentrations were determined in the extracts.
Chondrosarcoma cells (SW1353 from the American Type Culture Collection) were grown in Dulbecco's medium supplemented with streptomycin/penicillin (100 units of each/ml), 10% foetal calf serum or in serum free Quantum medium supplemented with streptomycin/penicillin (100 units of each/ml), kanamycin (100 units/ml).

[2] = system: hyaluronan export from chondrosarcoma cells; assay: Inhibition of hyaluronan export / production in chondrosarcoma cells; type: cell-based
Description: as §1
Chondrosarcoma cells were plated on a 96 well microtiter plate and in the presence of increasing flavonoid concentrations. After 2 days the concentration of hyaluronan was determined in the culture supernatant.

fibroblasts = assay: Alamar blue staining of fibroblasts; type: cell-based; details: Fibroblast
Description: as §1

Str/ort mice [3] = assay: Health evaluation of treated Str/ort mice; type: in vivo, mouse; details: 50 mg/kg intraperitoneally, 18 weeks, vs vehicle
Description: (§2) At 10-13 weeks of age, 21 male Str/ort mice (n=7/group) were assigned randomly to vehicle, hylin-betaine and xantho-betaine groups and were treated intraperitoneally 18 weeks with either vehicle (5% DMSO in 95% peanut oil), 50 mg/kg compound of Example 1 (“hylin-betaine”) in 5% DMSO and 95% peanut oil or 50 mg/kg compound of Example 2 (“xantho-betaine”) in 5% DMSO and 95% peanut oil.
To assess the health status after hylin-betaine and xantho-betaine treatment, mice were monitored for their health status. The monitoring criteria were body surface temperature, body weight, gait, coat condition, skin tenting for dehydration, hunching, activity, breathing rate and general body condition. Mice were scored blind for each one of these criteria from 1-5 except for body weight and temperature.

[4] = system: bovine cartilage explants; assay: Proteoglycan loss from interleukin activated bovine cartilage explants; type: cell-based
Description: Cartilage explants were weighed (average wet weight: 20 mg) incubated in the absence and presence of IL-1 (2 ng/ml) and the inhibitors at various concentrations for 5 days. The tissues were extracted with 1.5 ml of a solution of 4 M guanidinium hydrochloride, 0.1 M ε-aminohexanoid acid, 5 mM benzamidine, 10 mM N-ethylmaleinimide, 0.5 mM phenylmethylsulfonyl fluoride for 3 days at 4° C. The solution was centrifuged for 5 min at 10.000 g and the proteoglycans were determined in the supernatant by the alcian blue method as described (Bjornsson, S., Anal. Biochem., 1993, 210, 282-291).
Bovine cartilage explants were incubated in the absence and presence of interleukin for stimulation of osteoarthritic reactions and the indicated concentrations of the xanthohumol-betaine (FIG. 6A), xanthohumol-prothiazole (FIG. 6B), quercetin-prothiazole (FIG. 6C), quercetin (FIG. 6D) and xanthohumol (FIG. 6E) for 5 days. The cartilage explants were weighed and the proteoglycan concentrations were determined in the cartilage explants (solid bars) and culture supernatants (open bars).

Str/ort mice [5] = assay: Gait analysis (treadmill, Digigait) in Str/ort mice; type: in vivo, mouse
Description: as §2
Gait was monitored using a treadmill-based video system (DigigaitTM system) in three treatment groups of mice at three time point, week 1, week 9 and week 18 of treatment. The number of mice was 7, 7 and 5 in groups 1, 2 and 3, respectively.
[…] gait descriptors were used for the analyses. Thirty-four descriptors were obtained directly from the software of the system in the 4 limbs (LF: left front; RF: right front; LR: left rear; RR: right rear). All the others (143) were calculated indexes from gait measurements including swing, stance, brake, propel and stride times, stride length, frequency and coefficient of variation, paw area and paw angle and the variability of those two traits, the coefficient of variation of swing duration mid line distance, and minimum and maximum dAdT. The ratios of times were calculated in the 4 limbs: Brake, Propel, and Swing times relative to Stance and Stride times, Stance/Swing and Stance/Stride. In addition, the following additional indexes were considered:
In order to investigate whether there were differences among groups for each descriptor at the three experimental dates, an ANOVA was performed using data corresponding to each descriptor and date. Bonferroni correction was applied to counteract the problem of multiple comparisons.
A t-test analysis was also performed comparing only two groups at a time. In order to assess whether differences between both groups could be due to differences in gait change regarding the initial condition (at 2014/12/23), two sets of analyses were performed for data at 2015/02/18 and 2015/04/14, respectively by using Logistic Regression Analysis. The model included two independent variables: the initial value for each descriptor and the difference between the corresponding value at 2015/02/18 (or 2015/04/14) and the initial value. Bonferroni correction was also applied.

[6] = 50 mg/kg intraperitoneally, 18 weeks

health status: weight, hunching, gait, activity, vocalisation and respiration scores, coat condition (Str/ort mice [3]): does not alter
SMILES: COc1cc(O)c(CC=C(C)C)c(O)c1C(=O)/C=C/c1ccc(OC(=O)C[N+](C)(C)C)cc1.[Cl-] [Xantho-betaine, (E)-2-(4-(3-(2,4-dihydroxy-6-methoxy-3-(3-methylbut-2-en-1-yl)phenyl)-3-oxoprop-1-en-1-yl)phenoxy)-N,N,N-trimethyl-2-oxoethanaminium chloride]
IC50 [1]: 275 µM | IC50 [2]: 18 µM | inhibition of hyaluronan export ([2]; culture supernatant after 2 days, comparison with parent compound, particularly below 3 μM): slightly less effective than xanthohumol | IC50 (fibroblasts): 80 µM | IC50 ([4]; Bos taurus, read-out: IC50 Inhibition of proteoglycan loss): 300 nM | inhibition of proteoglycan loss (protective effect) ([4]; interleukin stimulated, 5 days): similarly effective | mice that refused to run (drop-out) during the gait studies (Str/ort mice [5]; [6]): 2 mice | percentage of drop-out regarding the total number of runs (Str/ort mice [5]; [6]): 13.3% | distribution of gait data (runs) by treatment group (Str/ort mice [5]; 2014 Dec. 23): 4 | distribution of gait data (runs) by treatment group (Str/ort mice [5]; 2015 Apr. 14): 5 | distribution of gait data (runs) by treatment group (Str/ort mice [5]; 2015 Feb. 18): 4 | effect on all gait descriptors (Str/ort mice [5]; any time point, compared with vehicle group): no significant effect
